Experiments:
[1] = molecular target: EGFR (Epidermal Growth Factor Receptor 1) (Homo sapiens, UniProt P00533); experiment: ELISA protein tyrosine kinase inhibition, EGFR; assay type: biochemical; details: ELISA, Poly(Glu, Tyr) 4:1 substrate, ATP 5 μM, test samples at 10-5 mol/l; read-out: EGFR inhibitory activity (IC50 class)
Text: (§1) Determining the Effect of Test Samples at a Concentration of 10-5 Mol/l on the Activity of the Substrate Phosphoryation Catalyzed by EGFR (Epidermal Growth Factor Receptor 1), ErbB-2 (Epidermal Growth Factor Receptor 2), ErbB-4, KDR (Vascular Endothelial Growth Factor Receptor 2) Protein Tyrosine Kinases at Molecular Level
(§2) Enzyme-Linked Immunosorbent Assay (ELISA)
(§3) Main instrument: wavelength-tunable microplate reader (VERSAmax).
(§4) Main reagents: kinase reaction substrate Poly(Glu, Tyr) 4:1 from Sigma; anti-phosphotyrosine monoclonal antibody PY99 from Santa Cruz; horseradish peroxidase-labeled goat anti-mouse IgG from Calbiochem; ATP, DTT, OPD from Amresco, and ELISA plate from Corning.
(§5) Poly(Glu, Tyr)4:1 as an enzyme substrate was diluted by potassium ion-free PBS into 20 μg/ml, and an ELISA plate was coated and subjected to reaction for 12-16 h at 37° C. After the liquid in wells was removed, the plate was washed three time by T-PBS, 5 min for each time. The ELISA plate was then dried in an oven at 37° C. The coated wells were added with the test samples: the test samples were prepared for a stock solution with a concentration of 1×10^−2M in DMSO. The aliquot solution was stored at −20° C., and diluted to the desired concentration with reaction buffer before use. The resulting solution was added into the wells so that the final concentration of 10-5 mol/l in 100 μL reaction system can be obtained. At the same time, a positive control well was set up and a positive control compound Su11248 was added. ATP and test tyrosine kinases were added: ATP solution diluted with reaction buffer was added (the final concentration of ATP is 5 μM). Finally, the test tyrosine kinases solution diluted with reaction buffer was added. The total volume of the reaction system was […]. Meanwhile, a negative control well and a control well without enzyme were set up. The reaction system was placed in a wet box, and shaked for 1 hour at 37° C., shielding from light. After the reaction was complete, the plate was washed by T-PBS three times. Antibody PY99 was added at 100 μL/well; and the plate was shaked for 30 min at 37° C. After the reaction was complete, the plate was washed with T-PBS three times. Horseradish peroxidase-labeled goat anti-mouse IgG was added at 100 μL/well, and the plate was shaked for 30 min at 37° C. The plate was washed with T-PBS three times. OPD developing liquid was added at 100 μL/well, and reacted for 1-10 min at room temperature, shielding from light. 50 μL of 2 M H2SO4 was added to stop the reaction. A492 value was determined using wavelength-tunable microplate reader. The inhibition ratio of the samples can be calculated by the following equation: […]

[2] = molecular target: ErbB-2 (Epidermal Growth Factor Receptor 2) (Homo sapiens, UniProt P04626); experiment: ELISA protein tyrosine kinase inhibition, ErbB-2; assay type: biochemical; details: Poly(Glu, Tyr) 4:1 substrate, ATP 5 μM, test samples at 10-5 mol/l, read-out: ErbB2 inhibitory activity (IC50 class)
ErbB-2 (Epidermal Growth Factor Receptor 2), sequence (P04626 23-1255): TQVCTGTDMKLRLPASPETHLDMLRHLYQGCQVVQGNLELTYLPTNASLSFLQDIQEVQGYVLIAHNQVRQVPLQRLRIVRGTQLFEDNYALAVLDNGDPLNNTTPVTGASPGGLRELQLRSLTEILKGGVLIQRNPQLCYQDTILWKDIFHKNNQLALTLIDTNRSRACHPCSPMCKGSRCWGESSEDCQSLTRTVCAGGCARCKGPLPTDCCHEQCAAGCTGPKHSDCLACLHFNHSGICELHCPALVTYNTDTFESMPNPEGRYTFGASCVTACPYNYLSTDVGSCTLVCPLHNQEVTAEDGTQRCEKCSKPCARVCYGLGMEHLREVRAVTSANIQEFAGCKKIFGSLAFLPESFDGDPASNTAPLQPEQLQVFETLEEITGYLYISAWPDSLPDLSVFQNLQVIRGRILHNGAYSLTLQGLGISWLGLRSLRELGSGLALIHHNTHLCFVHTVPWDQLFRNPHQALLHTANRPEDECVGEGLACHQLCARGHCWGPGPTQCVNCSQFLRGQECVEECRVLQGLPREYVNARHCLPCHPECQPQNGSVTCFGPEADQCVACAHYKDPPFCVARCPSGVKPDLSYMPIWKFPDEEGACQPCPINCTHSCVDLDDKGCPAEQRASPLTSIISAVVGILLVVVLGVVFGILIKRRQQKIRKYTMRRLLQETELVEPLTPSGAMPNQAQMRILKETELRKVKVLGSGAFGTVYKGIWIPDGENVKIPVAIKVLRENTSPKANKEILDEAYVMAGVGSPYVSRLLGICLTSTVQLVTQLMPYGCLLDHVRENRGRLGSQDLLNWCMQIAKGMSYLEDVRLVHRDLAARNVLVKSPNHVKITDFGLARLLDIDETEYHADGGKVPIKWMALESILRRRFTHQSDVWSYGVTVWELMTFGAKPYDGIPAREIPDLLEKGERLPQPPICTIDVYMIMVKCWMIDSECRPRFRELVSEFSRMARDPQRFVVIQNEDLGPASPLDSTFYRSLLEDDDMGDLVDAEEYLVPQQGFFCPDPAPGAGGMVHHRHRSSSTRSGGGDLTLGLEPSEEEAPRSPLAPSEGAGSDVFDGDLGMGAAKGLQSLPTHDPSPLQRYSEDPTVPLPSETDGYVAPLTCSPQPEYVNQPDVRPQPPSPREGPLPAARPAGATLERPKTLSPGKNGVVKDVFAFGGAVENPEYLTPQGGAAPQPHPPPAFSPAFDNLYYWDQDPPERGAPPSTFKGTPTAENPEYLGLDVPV
Text: as §1, §2, §3, §4, §5

EGFR (Epidermal Growth Factor Receptor 1), sequence (P00533 25-1210): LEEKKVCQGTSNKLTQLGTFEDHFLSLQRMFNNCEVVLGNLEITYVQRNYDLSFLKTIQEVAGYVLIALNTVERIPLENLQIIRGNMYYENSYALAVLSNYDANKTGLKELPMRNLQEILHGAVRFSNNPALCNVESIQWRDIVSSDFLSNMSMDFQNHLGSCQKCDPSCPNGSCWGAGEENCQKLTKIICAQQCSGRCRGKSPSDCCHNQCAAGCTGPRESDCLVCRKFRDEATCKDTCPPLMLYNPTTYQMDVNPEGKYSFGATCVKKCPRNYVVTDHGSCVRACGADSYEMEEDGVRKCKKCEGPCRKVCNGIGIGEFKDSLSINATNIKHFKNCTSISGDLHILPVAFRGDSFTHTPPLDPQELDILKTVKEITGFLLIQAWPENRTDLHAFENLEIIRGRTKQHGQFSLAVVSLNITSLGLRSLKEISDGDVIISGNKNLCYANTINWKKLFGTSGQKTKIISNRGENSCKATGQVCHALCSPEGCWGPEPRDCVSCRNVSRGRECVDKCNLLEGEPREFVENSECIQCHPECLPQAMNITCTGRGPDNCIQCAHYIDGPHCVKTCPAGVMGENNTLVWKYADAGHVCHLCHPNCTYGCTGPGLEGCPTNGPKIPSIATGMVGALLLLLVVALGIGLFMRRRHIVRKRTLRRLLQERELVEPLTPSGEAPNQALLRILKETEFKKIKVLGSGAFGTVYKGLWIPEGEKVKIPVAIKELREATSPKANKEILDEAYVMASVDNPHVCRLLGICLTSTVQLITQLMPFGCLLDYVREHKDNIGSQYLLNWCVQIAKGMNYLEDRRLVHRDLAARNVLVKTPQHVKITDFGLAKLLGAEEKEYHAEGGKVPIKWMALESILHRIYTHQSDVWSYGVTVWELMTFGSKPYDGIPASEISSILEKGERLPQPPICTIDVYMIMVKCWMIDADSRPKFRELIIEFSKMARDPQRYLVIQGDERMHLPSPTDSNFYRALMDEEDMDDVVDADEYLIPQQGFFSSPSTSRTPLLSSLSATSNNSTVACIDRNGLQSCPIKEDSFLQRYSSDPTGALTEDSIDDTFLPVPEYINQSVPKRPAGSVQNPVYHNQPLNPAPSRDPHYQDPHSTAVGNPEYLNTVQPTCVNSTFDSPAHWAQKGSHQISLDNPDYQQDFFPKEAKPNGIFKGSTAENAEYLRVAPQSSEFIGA

Structure (SMILES) | IC50 [1] [µM] | IC50 [2] [µM]
O=[N+]([O-])c1ccc(CCNCc2ccc(-c3ccc4ncnc(Nc5ccc(OCc6cccc(F)c6)c(Cl)c5)c4c3)o2)cc1 [MS 12, N-(3-chloro-4-((3-fluorobenzyl)oxy)phenyl)-6-(5-(((2-(4-nitrophenyl)ethyl)amino)methyl)-2-furyl)-4-quinazolinamine] | < 10 | < 10
COCCCCNCc1ccc(-c2ccc3ncnc(Nc4ccc(OCc5cccc(F)c5)c(Cl)c4)c3c2)o1 [MS10·dimethanesulfonate, N-(3-chloro-4-((3-fluorobenzyl)oxy)phenyl)-6-(5-(((4-methoxybutyl)amino)methyl)-2-furyl)-4-quinazolinamine] | < 10 | < 10
CCNCc1ccc(-c2ccc3ncnc(Nc4ccc(OCc5cccc(F)c5)c(Cl)c4)c3c2)o1 [MS 3, N-(3-chloro-4-((3-fluorobenzyl)oxy)phenyl)-6-(5-((ethylamino)methyl)-2-furyl)-4-quinazolinamine] | < 10 | < 10
Fc1cccc(COc2ccc(Nc3ncnc4ccc(-c5ccc(CNCc6cccc(Cl)c6)o5)cc34)cc2Cl)c1 [MS 11, N-(3-chloro-4-((3-fluorobenzyl)oxy)phenyl)-6-(5-(((3-chlorobenzyl)amino)methyl)-2-furyl)-4-quinazolinamine] | < 10 | > 10
Fc1cccc(COc2ccc(Nc3ncnc4ccc(-c5ccc(CNOCc6ccccc6)o5)cc34)cc2Cl)c1 [MS 19, N-(3-chloro-4-((3-fluorobenzyl)oxy)phenyl)-6-(5-(((benzyloxy)amino)methyl)-2-furyl)-4-quinazolinamine] | < 10 | < 10
O=C(O)C(CO)NCc1ccc(-c2ccc3ncnc(Nc4ccc(OCc5cccc(F)c5)c(Cl)c4)c3c2)o1 (centres unmarked) [MS 28, N-(3-chloro-4-((3-fluorobenzyl)oxy)phenyl)-6-(5-((((1-carboxy-2-hydroxy)ethyl)amino)methyl)-2-furyl)-4-quinazolinamine] | < 10 | < 10
O=[N+]([O-])c1ccc(CCNCc2ccc(-c3ccc4ncnc(Nc5ccc(F)c(Cl)c5)c4c3)o2)cc1 [MS 40, N-(3-chloro-4-fluorophenyl)-6-(5-(((2-(4-nitrophenyl)ethyl)amino)methyl)-2-furyl)-4-quinazolinamine] |  | < 10
O=C(O)CNCc1ccc(-c2ccc3ncnc(Nc4ccc(OCc5cccc(F)c5)c(Cl)c4)c3c2)o1 [MS 22, N-(3-chloro-4-((3-fluorobenzyl)oxy)phenyl)-6-(5-(((carboxymethyl)amino)methyl)-2-furyl)-4-quinazolinamine] | < 10 | < 10
CCN(CC)Cc1ccc(-c2ccc3ncnc(Nc4ccc(OCc5cccc(F)c5)c(Cl)c4)c3c2)o1 [MS 4] | < 10 | < 10
Oc1ccc(CCNCc2ccc(-c3ccc4ncnc(Nc5ccc(OCc6cccc(F)c6)c(Cl)c5)c4c3)o2)cc1 [MS 13, N-(3-chloro-4-((3-fluorobenzyl)oxy)phenyl)-6-(5-(((2-(4-hydroxyphenyl)ethyl)amino)methyl)-2-furyl)-4-quinazolinamine] | < 10 | < 10
COc1cc(CCNCc2ccc(-c3ccc4ncnc(Nc5ccc(OCc6cccc(F)c6)c(Cl)c5)c4c3)o2)cc(OC)c1 [MS 14] | < 10 | < 10
NC1CCCC(NCc2ccc(-c3ccc4ncnc(Nc5ccc(OCc6cccc(F)c6)c(Cl)c5)c4c3)o2)C1 (centres unmarked) [MS 21, N-(3-chloro-4-((3-fluorobenzyl)oxy)phenyl)-6-(5-(((3-aminocyclohexyl)amino)methyl)-2-furyl)-4-quinazolinamine] | < 10 | < 10
O=C(O)C(Cc1ccccc1)NCc1ccc(-c2ccc3ncnc(Nc4ccc(OCc5cccc(F)c5)c(Cl)c4)c3c2)o1 (centres unmarked) [MS 24, N-(3-chloro-4-((3-fluorobenzyl)oxy)phenyl)-6-(5-((((1-carboxy-2-phenyl)ethyl)amino)methyl)-2-furyl)-4-quinazolinamine] | < 10 | < 10
CCCCCCNCc1ccc(-c2ccc3ncnc(Nc4ccc(OCc5cccc(F)c5)c(Cl)c4)c3c2)o1 [MS 2, N-(3-chloro-4-((3-fluorobenzyl)oxy)phenyl)-6-(5-((n-hexylamino)methyl)-2-furyl)-4-quinazolinamine] | < 10 | > 10
NC(CCCNCc1ccc(-c2ccc3ncnc(Nc4ccc(OCc5cccc(F)c5)c(Cl)c4)c3c2)o1)C(=O)O (centres unmarked) [MS 32, N-(3-chloro-4-((3-fluorobenzyl)oxy)phenyl)-6-(5-((((4-carboxy-4-amino)butyl)amino)methyl)-2-furyl)-4-quinazolinamine] | < 10 | < 10
NC(CCCNCc1ccc(-c2ccc3ncnc(Nc4ccc(F)c(Cl)c4)c3c2)o1)C(=O)O (centres unmarked) [MS 37, N-(3-chloro-4-fluorophenyl)-6-(5-((((4-carboxy-4-amino)butyl)amino)methyl)-2-furyl)-4-quinazolinamine] |  | < 10
OCCCCC(O)CNCc1ccc(-c2ccc3ncnc(Nc4ccc(OCc5cccc(F)c5)c(Cl)c4)c3c2)o1 (centres unmarked) [MS 17, N-(3-chloro-4-((3-fluorobenzyl)oxy)phenyl)-6-(5-(((2,6-dihydroxyhexyl)amino)methyl)-2-furyl)-4-quinazolinamine] | < 10 | < 10
O=C(O)C(CS)NCc1ccc(-c2ccc3ncnc(Nc4ccc(OCc5cccc(F)c5)c(Cl)c4)c3c2)o1 (centres unmarked) [MS 29] | < 10 | < 10
Oc1cc(F)cc(CCNCc2ccc(-c3ccc4ncnc(Nc5ccc(OCc6cccc(F)c6)c(Cl)c5)c4c3)o2)c1 [MS 15, N-(3-chloro-4-((3-fluorobenzyl)oxy)phenyl)-6-(5-(((2-(3-hydroxy-5-fluorophenyl)ethyl)amino)methyl)-2-furyl)-4-quinazolinamine] | < 10 | < 10
NC(=O)CC(NCc1ccc(-c2ccc3ncnc(Nc4ccc(OCc5cccc(F)c5)c(Cl)c4)c3c2)o1)C(=O)O (centres unmarked) [MS 30, N-(3-chloro-4-((3-fluorobenzyl)oxy)phenyl)-6-(5-((((1-carboxy-2-aminoformyl)ethyl)amino)methyl)-2-furyl)-4-quinazolinamine] | < 10 | < 10
NCCCC(NCc1ccc(-c2ccc3ncnc(Nc4ccc(F)c(Cl)c4)c3c2)o1)C(=O)O (centres unmarked) [MS 38, N-(3-chloro-4-fluorophenyl)-6-(5-((((1-carboxy-4-amino)butyl)amino)methyl)-2-furyl)-4-quinazolinamine] |  | < 10
Fc1cc(Cl)cc(CCNCc2ccc(-c3ccc4ncnc(Nc5ccc(OCc6cccc(F)c6)c(Cl)c5)c4c3)o2)c1 [MS 16, N-(3-chloro-4-((3-fluorobenzyl)oxy)phenyl)-6-(5-(((2-(3-chloro-5-fluorophenyl)ethyl)amino)methyl)-2-furyl)-4-quinazolinamine] | < 10 | > 10

Source: patent US9499530B2 (HANGZHOU MINSHENG INSTITUTES FOR PHARMA RESEARCH, priority 2011, dated 2016)
